Where two headings read alike, the source gives them in different places.
What was measured:
Test in all cases: Test A postemergence
Assay type in all cases: in vivo
corn (Zea mays) = settings: Zea mays, post-emergence, 240 h; for plant injury at 125 g/ha / Corn plant response rating (crop injury, 0 = no effect, 100 = complete kill) at 125 g/ha: 125 g ai/ha; for plant injury at 125 g/ha: read-out: Corn plant response rating (0 to 100 scale); for plant injury at 500 g/ha / Corn plant response rating (crop injury, 0 = no effect, 100 = complete kill) at 500 g/ha: 500 g ai/ha; for plant injury at 500 g/ha: 0 to 100 scale, 0 is no effect, 100 is complete control, read-out: Corn plant response rating; for Corn plant response rating (crop injury, 0 = no effect, 100 = complete kill) at 500 g/ha: visual injury, approx. 10 d; for Corn plant response rating (crop injury, 0 = no effect, 100 = complete kill) at 500 g/ha / Corn plant response rating (crop injury, 0 = no effect, 100 = complete kill) at 125 g/ha: 0 to 100 scale (0 no effect, 100 complete control); for Corn plant response rating (crop injury, 0 = no effect, 100 = complete kill) at 125 g/ha: visual injury after approximately 10 d
How it was run: (§1)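 Preemergence soil spray on seeded pots or post-emergence spray on 1–2 leaf plants, in loam–sand blend. Greenhouse ~10 d. Visual rating 0–100 against untreated plants.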

[1] = test system: blackgrass (Alopecurus myosuroides); settings: Alopecurus myosuroides, post-emergence, 240 h; for pest or weed control at 125 g/ha: 125 g ai/ha; for pest or weed control at 500 g/ha: 500 g ai/ha
How it was run: as §1

[2] = test system: ragweed (common ragweed, Ambrosia elatior); settings: Ambrosia artemisiifolia, post-emergence, 240 h; for pest or weed control at 125 g/ha: 125 g ai/ha; for pest or weed control at 500 g/ha: 500 g ai/ha
How it was run: as §1

Kochia (Kochia scoparia) = settings: Bassia scoparia, post-emergence, 240 h; for pest or weed control at 125 g/ha: 125 g ai/ha; for pest or weed control at 500 g/ha: 500 g ai/ha
How it was run: as §1

[3] = test system: Galium (catchweed bedstraw, Galium aparine); settings: Galium, post-emergence, 240 h; for pest or weed control at 125 g/ha: 125 g ai/ha; for pest or weed control at 500 g/ha: 500 g ai/ha
How it was run: as §1

[4] = test system: wheat (Triticum aestivum); settings: Triticum aestivum, post-emergence, 240 h; for plant injury at 125 g/ha: 125 g ai/ha; for plant injury at 500 g/ha: 500 g ai/ha
How it was run: as §1

[5] = postemergence, visual injury vs untreated controls after approx. 10 d, 0 = no effect, 100 = complete control
[6] = postemergence, visual injury vs untreated controls after approx. 10 d, 0 = no effect, 100 = complete control, read-out: Blackgrass plant response rating (0 to 100 scale)
[7] = postemergence, 0 to 100 scale, 0 is no effect, 100 is complete control, read-out: Blackgrass plant response rating
[8] = postemergence, visual injury vs untreated controls after approx. 10 d, 0 = no effect, 100 = complete control, read-out: Ragweed plant response rating (0 to 100 scale)
[9] = postemergence, 0 to 100 scale, 0 is no effect, 100 is complete control, read-out: Ragweed plant response rating
[10] = postemergence, visual injury vs untreated controls after approx. 10 d, 0 = no effect, 100 = complete control, read-out: Kochia plant response rating (0 to 100 scale)
[11] = postemergence, 0 to 100 scale, 0 is no effect, 100 is complete control, read-out: Kochia plant response rating
[12] = postemergence, visual injury vs untreated controls after approx. 10 d, 0 = no effect, 100 = complete control, read-out: Galium plant response rating (0 to 100 scale)
[13] = postemergence, 0 to 100 scale, 0 is no effect, 100 is complete control, read-out: Galium plant response rating
[14] = postemergence, visual injury vs untreated controls after approx. 10 d, 0 = no effect, 100 = complete control, read-out: Wheat plant response rating (0 to 100 scale)
[15] = postemergence, 0 to 100 scale, 0 is no effect, 100 is complete control, read-out: Wheat plant response rating
[16] = Postemergence, visual rating about 10 d after treatment
[17] = Postemergence, visual rating about 10 d after treatment, read-out: Blackgrass plant response rating (0 to 100 scale)
[18] = Postemergence, visual injury, 0 to 100 scale (0 no effect, 100 complete control), approx. 10 d, read-out: Plant response rating, Blackgrass
[19] = Postemergence, visual rating about 10 d after treatment, read-out: Ragweed plant response rating (0 to 100 scale)
[20] = Postemergence, visual injury, 0 to 100 scale (0 no effect, 100 complete control), approx. 10 d, read-out: Plant response rating, Ragweed
[21] = Postemergence, visual rating about 10 d after treatment, read-out: Kochia plant response rating (0 to 100 scale)
[22] = Postemergence, visual injury, 0 to 100 scale (0 no effect, 100 complete control), approx. 10 d, read-out: Plant response rating, Kochia
[23] = Postemergence, visual rating about 10 d after treatment, read-out: Galium plant response rating (0 to 100 scale)
[24] = Postemergence, visual injury, 0 to 100 scale (0 no effect, 100 complete control), approx. 10 d, read-out: Plant response rating, Galium
[25] = Postemergence, visual rating about 10 d after treatment, read-out: Wheat plant response rating (0 to 100 scale)
[26] = Postemergence, visual injury, 0 to 100 scale (0 no effect, 100 complete control), approx. 10 d, read-out: Plant response rating, Wheat
[27] = postemergence, visual injury after approximately 10 d, 0 to 100 scale (0 no effect, 100 complete control), read-out: Plant response rating, Blackgrass
[28] = postemergence, visual injury after approximately 10 d, 0 to 100 scale (0 no effect, 100 complete control), read-out: Plant response rating, Ragweed
[29] = postemergence, visual injury after approximately 10 d, 0 to 100 scale (0 no effect, 100 complete control), read-out: Plant response rating, Kochia
[30] = postemergence, visual injury after approximately 10 d, 0 to 100 scale (0 no effect, 100 complete control), read-out: Plant response rating, Galium
[31] = postemergence, visual injury after approximately 10 d, 0 to 100 scale (0 no effect, 100 complete control), read-out: Plant response rating, Wheat

| SMILES | plant injury at 125 g/ha (corn (Zea mays); [5]) | pest or weed control at 125 g/ha [1, 6] | pest or weed control at 125 g/ha [2, 8] | pest or weed control at 125 g/ha (Kochia (Kochia scoparia); [10]) | pest or weed control at 125 g/ha [3, 12] | plant injury at 125 g/ha [4, 14] | plant injury at 125 g/ha (corn (Zea mays); [16]) | Corn plant response rating (crop injury, 0 = no effect, 100 = complete kill) at 500 g/ha (corn (Zea mays); Postemergence) | pest or weed control at 125 g/ha [1, 17] | pest or weed control at 500 g/ha [1, 18] | pest or weed control at 125 g/ha [2, 19] | pest or weed control at 500 g/ha [2, 20] | pest or weed control at 125 g/ha (Kochia (Kochia scoparia); [21]) | pest or weed control at 500 g/ha (Kochia (Kochia scoparia); [22]) | pest or weed control at 125 g/ha [3, 23] | pest or weed control at 500 g/ha [3, 24] | plant injury at 125 g/ha [4, 25] | plant injury at 500 g/ha [4, 26] | Corn plant response rating (crop injury, 0 = no effect, 100 = complete kill) at 125 g/ha (corn (Zea mays); postemergence) | pest or weed control at 125 g/ha [1, 27] | also measured |
| --- | --- | --- | --- | --- | --- | --- | --- | --- | --- | --- | --- | --- | --- | --- | --- | --- | --- | --- | --- | --- | --- |
| CN1C[C@H](c2ccc3c(c2)OC(F)(F)O3)[C@@H](C(=O)Nc2ccc(F)c(F)c2F)C1=O [Compound 1204] | 70% | 50% | 20% | 80% | 50% | 60% | – | – | – | – | – | – | – | – | – | – | – | – | – | – | plant injury at 500 g/ha (corn (Zea mays); postemergence): 80%; pest or weed control at 500 g/ha [1, 7]: 70%; pest or weed control at 500 g/ha [2, 9]: 60%; pest or weed control at 500 g/ha (Kochia (Kochia scoparia); [11]): 80%; pest or weed control at 500 g/ha [3, 13]: 60%; plant injury at 500 g/ha [4, 15]: 70% |
| COc1cc([C@H]2CN(C)C(=O)[C@@H]2C(=O)Nc2cccc(F)c2F)ccc1F [Compound 1299] | – | – | – | – | – | – | 40% | 80% | 20% | 60% | 0% | 20% | 0% | 60% | 40% | 50% | 30% | 40% | – | – | – |
| Cc1ccc([C@H]2CNC(=O)[C@@H]2C(=O)Nc2c(F)cccc2F)cc1C [Compound 1247] | 0% | 0% | 0% | 0% | 0% | 0% | – | 0% | – | 0% | – | 0% | – | 0% | – | 20% | – | 0% | – | – | – |
| COc1cc(C(F)(F)F)ccc1[C@H]1CN(C)C(=O)[C@@H]1C(=O)Nc1cccc(F)c1C [Compound 1205] | 70% | 0% | 0% | 0% | 20% | 30% | – | – | – | – | – | – | – | – | – | – | – | – | – | – | plant injury at 500 g/ha (corn (Zea mays); postemergence): 80%; pest or weed control at 500 g/ha [1, 7]: 20%; pest or weed control at 500 g/ha [2, 9]: 0%; pest or weed control at 500 g/ha (Kochia (Kochia scoparia); [11]): 0%; pest or weed control at 500 g/ha [3, 13]: 40%; plant injury at 500 g/ha [4, 15]: 40% |
| CN1C[C@H](c2ccc3c(c2)CCC3)[C@@H](C(=O)Nc2ccccc2F)C1=O [Compound 742] | – | – | – | – | – | – | – | – | – | – | – | – | – | – | – | – | – | – | 70% | 40% | pest or weed control at 125 g/ha [2, 28]: 20%; pest or weed control at 125 g/ha (Kochia (Kochia scoparia); [29]): 30%; pest or weed control at 125 g/ha [3, 30]: 50%; plant injury at 125 g/ha [4, 31]: 60% |
| CN1C[C@H](c2ccc(OC(F)F)cc2)[C@@H](C(=O)Nc2ccccc2F)C1=O [Compound 1371] | – | – | – | – | – | – | 40% | 90% | 40% | 60% | 20% | 60% | 50% | 80% | 70% | 70% | 10% | 60% | – | – | – |
| Cc1cc([C@H]2CNC(=O)[C@@H]2C(=O)Nc2ccc(F)cc2F)ccc1F [Compound 718] | – | – | – | – | – | – | – | – | – | – | – | – | – | – | – | – | – | – | 0% | 20% | pest or weed control at 125 g/ha [2, 28]: 0%; pest or weed control at 125 g/ha (Kochia (Kochia scoparia); [29]): 30%; pest or weed control at 125 g/ha [3, 30]: 40%; plant injury at 125 g/ha [4, 31]: 0% |
| COc1cc(OC)cc([C@H]2CN(C)C(=O)[C@@H]2C(=O)Nc2cccc(F)c2F)c1 [Compound 1370] | – | – | – | – | – | – | 30% | 80% | 50% | 80% | 0% | 30% | 50% | 50% | 40% | 50% | 40% | 70% | – | – | – |
| C=CCN1C[C@H](c2ccc(OC)c(F)c2)[C@@H](C(=O)Nc2cccc(F)c2F)C1=O [Compound 722] | – | – | – | – | – | – | – | – | – | – | – | – | – | – | – | – | – | – | 0% | 0% | pest or weed control at 125 g/ha [2, 28]: 0%; pest or weed control at 125 g/ha (Kochia (Kochia scoparia); [29]): 0%; pest or weed control at 125 g/ha [3, 30]: 0%; plant injury at 125 g/ha [4, 31]: 0% |

— patent US12077503B2, “Substituted cyclic amides and their use as herbicides” (FMC CORPORATION, priority 2015, dated 2024)
